Experimental data as given in patent publication US20250064945A1 (Arvinas Operations, Inc., priority 2021, published 2025).

Biological target: T1, BRM (Homo sapiens, UniProt P51531)
T1 construct: In-Cell Western Screen of BRM Degradation in SW1573 Cells; endogenous in cells; host or cells: SW1573 cells
Experiment: Western blot / In-Cell Western screen of BRM degradation in SW1573 cells
Format: cell-based
Conditions: overnight (18-20 hours) treatment; for Dmax: read-out: Dmax (%) (% degraded)
Protocol: Western Blot Screen of BRM Degradation in SW1573 Cells
(§1) To assess BRM degradation (Dmax and DC50) cells were seeded at 8000/well in 96-well black/clear-bottom plates in 180 μL DMEM growth media (containing 1% pen-strep, 1% HEPES and 10% FBS) per well. Plates were incubated overnight to allow adhesion. The next morning cells were treated by adding 20 μL of 10× target compound concentration (1% DMSO) to appropriate wells and returned to incubator for overnight (18-20 hours). The final DMSO concentration was 0.1%.
For lysing, adherent cells were washed once with 100 μL of DPBS. Cells were lysed in 40 μL of 1× RIPA+HALT protease inhibitor on ice for 10 minutes and frozen until use at −80° C. Thawed lysates were cleaned by filtration in 1.2 µm filter plates, or alternatively, were spun clean at 2300 g at 4° C. for 30 minutes.
For blotting, for each Western sample 30 μL of lysate was added to 10 μL of 4×LDS sample buffer, then denatured at 95° C. for 5 minutes in the thermal cycler and placed on ice. Samples were loaded on 4-15% Tris/Glycine gels and run for 25 minutes at 250 constant volts in 1×Tris/Glycine buffer with 4 μL of ladder and 12 μL of each sample loaded for each blot. Protein was transferred from gels to NC with BioRad Turbo dry-transfer unit with the Turbo/midi default program. All blots were rinsed with ddH2O and blocked for 1 hour at room temperature in 5% BSA in TBST (0.1%) on rocker. Blots were exposed to primary antibody in 5% BSA in TBST (0.1%) overnight at 4° C. on rocker (1:1000 for BRM (Cell Signaling Tech. cat #11966) and 1:2000 for alpha-tubulin (Cell Signaling Tech. cat #3873), a control protein. Blot was washed with TBST (0.1%) three times for 5 minutes on rocker at room temperature. Secondary antibody was added, and blots were incubated on a room temperature rocker for 1 hour with 1:18,000 anti-rabbit-HRP and/or anti-mouse-HRP in 5% BSA in TBST (0.1%). Blots were washed three times in TBST (0.1%) for 5 minutes at room temperature on the rocker. Signal was developed with Femto Maximum Sensitivity substrate for 4 minutes and blots read on ChemiDoc™.
In-Cell Western Screen of BRM Degradation in SW1573 Cells
as §1, with “DC50),” for “DC50)”, “10×” for “10× target”, “compound” for “compound concentration”
For processing, the plates were removed from incubator, the media was removed, and immediately 200 μL of cold (4° C.) DPBS was added to all wells. DPBS was then removed, and 50 μL of 4% paraformaldehyde (PFA) in DPBS (4° C.) was added to all wells, and the plates were incubated at room temperature for 20 minutes. PFA was then removed, and 200 μL of TBS-T containing 0.5% Triton X-100 was added to all wells, and the plates were incubated at room temperature for 30 minutes. TBS-T containing 0.5% Triton X-100 was then removed, and 50 μL of Li-Cor blocking solution was added, and the plates were incubated at room temperature for a minimum of one hour. The blocking solution was removed, and 50 μL of Li-Cor blocking solution containing primary antibody cocktail was added (1:1000 for BRM (Cell Signaling Tech. cat #11966) and 1:2000 for alpha-tubulin (Sigma cat #T6074), a control protein. Plates were then placed in cold room until the next day.
The next day plates were washed three times with TBS-T, 200 μL per well. Fifty […] of secondary antibody cocktail in LI-COR blocking solution (anti-rabbit_800 nm and anti-mouse_680 nm) was added to all wells (diluted 1:5000). The plates were incubated at room temperature for at least one hour while protected from light. The plates were washed twice with TBS-T, 200 μL per well. […]

T1 sequence (P51531 whole entry): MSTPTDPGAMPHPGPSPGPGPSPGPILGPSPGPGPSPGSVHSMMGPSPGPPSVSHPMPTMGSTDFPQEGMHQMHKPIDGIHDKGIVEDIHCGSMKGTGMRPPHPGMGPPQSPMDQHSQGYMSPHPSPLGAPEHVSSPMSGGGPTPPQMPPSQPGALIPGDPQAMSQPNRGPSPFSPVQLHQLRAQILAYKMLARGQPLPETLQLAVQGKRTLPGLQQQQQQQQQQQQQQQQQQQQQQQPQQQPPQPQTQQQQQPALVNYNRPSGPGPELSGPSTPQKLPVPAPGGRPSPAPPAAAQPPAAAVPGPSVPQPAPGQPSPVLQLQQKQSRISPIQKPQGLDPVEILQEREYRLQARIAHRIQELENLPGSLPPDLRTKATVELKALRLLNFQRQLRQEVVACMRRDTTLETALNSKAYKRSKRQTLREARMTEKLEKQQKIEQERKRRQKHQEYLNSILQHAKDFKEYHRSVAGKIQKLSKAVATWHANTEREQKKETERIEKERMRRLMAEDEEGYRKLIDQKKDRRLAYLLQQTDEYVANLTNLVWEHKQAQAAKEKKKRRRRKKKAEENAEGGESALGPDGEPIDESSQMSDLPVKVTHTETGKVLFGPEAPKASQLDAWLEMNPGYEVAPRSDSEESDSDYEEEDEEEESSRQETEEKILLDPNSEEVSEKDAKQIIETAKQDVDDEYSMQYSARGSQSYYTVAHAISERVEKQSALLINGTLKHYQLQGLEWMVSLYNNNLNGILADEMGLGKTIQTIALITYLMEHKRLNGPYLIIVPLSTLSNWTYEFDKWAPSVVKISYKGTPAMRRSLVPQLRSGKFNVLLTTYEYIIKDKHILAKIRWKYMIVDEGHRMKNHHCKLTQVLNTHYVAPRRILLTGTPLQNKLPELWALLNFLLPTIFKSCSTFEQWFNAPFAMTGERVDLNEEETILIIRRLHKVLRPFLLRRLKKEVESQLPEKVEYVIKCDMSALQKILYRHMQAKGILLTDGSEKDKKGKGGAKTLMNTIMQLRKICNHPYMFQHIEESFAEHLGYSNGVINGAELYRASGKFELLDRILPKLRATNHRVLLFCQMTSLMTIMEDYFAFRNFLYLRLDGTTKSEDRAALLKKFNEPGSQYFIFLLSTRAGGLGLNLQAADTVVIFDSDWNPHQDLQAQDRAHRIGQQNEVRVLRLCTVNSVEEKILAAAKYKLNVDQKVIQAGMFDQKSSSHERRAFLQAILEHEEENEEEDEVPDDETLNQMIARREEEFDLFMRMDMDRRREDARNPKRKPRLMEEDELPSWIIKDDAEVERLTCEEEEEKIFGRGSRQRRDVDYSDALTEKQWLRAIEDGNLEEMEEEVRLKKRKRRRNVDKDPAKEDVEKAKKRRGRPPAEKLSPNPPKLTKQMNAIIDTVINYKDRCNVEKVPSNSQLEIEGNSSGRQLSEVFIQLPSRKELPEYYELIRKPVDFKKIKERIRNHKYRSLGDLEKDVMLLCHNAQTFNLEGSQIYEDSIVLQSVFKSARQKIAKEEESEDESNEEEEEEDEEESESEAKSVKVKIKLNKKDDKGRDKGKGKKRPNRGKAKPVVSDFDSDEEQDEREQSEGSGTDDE

Row | SMILES | DC50 [nM] | Dmax [%]
1 | Cc1ncsc1-c1ccc([C@H](C)NC(=O)[C@@H]2C[C@@H](O)CN2C(=O)[C@@H](c2cc(N3CCC(CN4CCC(O[C@H]5C[C@H](n6cnc(CN7C8CCC7CN(c7cc(-c9ccccc9O)nnc7N)C8)c6)C5)CC4)CC3)no2)C(C)C)cc1 (relative stereo) [Compound 10, (2S,4R)-4-hydroxy-N-[(1S)-1-[4-(4-methyl-1,3-thiazol-5-yl)phenyl]ethyl]-1-[(2R*)-3-methyl-2-{3-[4-({4-[(1r,3r)-3-[4-({3-[3-amino-6-(2-hydroxyphenyl)pyridazin-4-yl]-3,8-diazabicyclo[3.2.1]octan-8-yl}methyl)-1H-imidazol-1-yl]cyclobutoxy]piperidin-1-yl}methyl)piperidin-1-yl]-1,2-oxazol-5-yl}butanoyl]pyrrolidine-2-carboxamide] | < 2.5 | > 75
2 | Cc1ncsc1-c1ccc([C@H](C)NC(=O)[C@@H]2C[C@@H](O)CN2C(=O)[C@@H](c2cc(N3CCC(CN4CCC(O[C@H]5C[C@H](Oc6cc(CCc7cc(-c8ccccc8O)nnc7N)ccn6)C5)CC4)CC3)no2)C(C)C)cc1 [Compound 1, (2S,4R)-4-hydroxy-N-[(1S)-1-[4-(4-methyl-1,3-thiazol-5-yl)phenyl]ethyl]-1-[(2R)-3-methyl-2-{3-[4-({4-[(1r,3r)-3-[(4-{2-[3-amino-6-(2-hydroxyphenyl)pyridazin-4-yl]ethyl}pyridin-2-yl)oxy]cyclobutoxy]piperidin-1-yl}methyl)piperidin-1-yl]-1,2-oxazol-5-yl}butanoyl]pyrrolidine-2-carboxamide] | 2.5 to 10 | > 75
3 | Cc1ncsc1-c1ccc([C@H](C)NC(=O)[C@@H]2C[C@@H](O)CN2C(=O)[C@@H](c2cc(N3CCC(CN4CCC(O[C@H]5C[C@H](Oc6cc(CC(F)c7cc(-c8ccccc8O)nnc7N)ccn6)C5)CC4)CC3)no2)C(C)C)cc1 (stereo partly drawn) [Compound 2, (2S,4R)-4-hydroxy-N-[(1S)-1-[4-(4-methyl-1,3-thiazol-5-yl)phenyl]ethyl]-1-[(2R)-3-methyl-2-{3-[4-({4-[(1r,3r)-3-[(4-{2-[3-amino-6-(2-hydroxyphenyl)pyridazin-4-yl]-2-fluoroethyl}pyridin-2-yl)oxy]cyclobutoxy]piperidin-1-yl}methyl)piperidin-1-yl]-1,2-oxazol-5-yl}butanoyl]pyrrolidine-2-carboxamide] | 2.5 to 10 | > 75
4 | Cc1ncsc1-c1ccc([C@H](C)NC(=O)[C@@H]2C[C@@H](O)CN2C(=O)[C@@H](c2cc(N3CCC(CN4CCC(O[C@H]5C[C@H](n6cnc(CN7C8CCC7CN(c7cc(-c9ccccc9O)nnc7N)C8)c6)C5)CC4)CC3)no2)C(C)C)cc1 [Compound 3, (2S,4R)-4-hydroxy-N-[(1S)-1-[4-(4-methyl-1,3-thiazol-5-yl)phenyl]ethyl]-1-[(2R)-3-methyl-2-{3-[4-({4-[(1r,3r)-3-[4-({3-[3-amino-6-(2-hydroxyphenyl)pyridazin-4-yl]-3,8-diazabicyclo[3.2.1]octan-8-yl}methyl)-1H-imidazol-1-yl]cyclobutoxy]piperidin-1-yl}methyl)piperidin-1-yl]-1,2-oxazol-5-yl}butanoyl]pyrrolidine-2-carboxamide] | < 2.5 | > 75
5 | Cc1ncsc1-c1ccc([C@H](C)NC(=O)[C@@H]2C[C@@H](O)CN2C(=O)[C@@H](c2cc(N3CCC(CN4CCC(O[C@H]5C[C@H](Oc6cc(N7CCN(c8cc(-c9ccccc9O)nnc8N)CC78COC8)ccn6)C5)CC4)CC3)no2)C(C)C)cc1 [Compound 4, (2S,4R)-4-hydroxy-N-[(1S)-1-[4-(4-methyl-1,3-thiazol-5-yl)phenyl]ethyl]-1-[(2R)-3-methyl-2-{3-[4-({4-[(1r,3r)-3-[(4-{8-[3-amino-6-(2-hydroxyphenyl)pyridazin-4-yl]-2-oxa-5,8-diazaspiro[3.5]nonan-5-yl}pyridin-2-yl)oxy]cyclobutoxy]piperidin-1-yl}methyl)piperidin-1-yl]-1,2-oxazol-5-yl}butanoyl]pyrrolidine-2-carboxamide] | < 2.5 | > 75
6 | Cc1ncsc1-c1ccc([C@H](C)NC(=O)[C@@H]2C[C@@H](O)CN2C(=O)[C@@H](c2cc(N3CCC(CN4CCC(O[C@H]5C[C@H](N6CCC(O[C@H]7C[C@H](C#Cc8cc(-c9ccccc9O)nnc8N)C7)CC6)C5)CC4)CC3)no2)C(C)C)cc1 [Compound 5, (2S,4R)-4-hydroxy-N-[(1S)-1-[4-(4-methyl-1,3-thiazol-5-yl)phenyl]ethyl]-1-[(2R)-3-methyl-2-{3-[4-({4-[(1r,3r)-3-(4-[(1r,3r)-3-{2-[3-amino-6-(2-hydroxyphenyl)pyridazin-4-yl]ethynyl}cyclobutoxy]piperidin-1-yl}cyclobutoxy]piperidin-1-yl}methyl)piperidin-1-yl]-1,2-oxazol-5-yl}butanoyl]pyrrolidine-2-carboxamide] | < 2.5 | > 75
7 | Cc1ncsc1-c1ccc([C@H](C)NC(=O)[C@@H]2C[C@@H](O)CN2C(=O)[C@@H](c2cc(N3CCC(CN4CCC(O[C@H]5C[C@H](Oc6cc(N7CCN(c8cc(-c9ccccc9O)nnc8N)CC78CC8)ccn6)C5)CC4)CC3)no2)C(C)C)cc1 [Compound 6, (2S,4R)-4-hydroxy-N-[(1S)-1-[4-(4-methyl-1,3-thiazol-5-yl)phenyl]ethyl]-1-[(2R)-3-methyl-2-{3-[4-({4-[(1r,3r)-3-[(4-{7-[3-amino-6-(2-hydroxyphenyl)pyridazin-4-yl]-4,7-diazaspiro[2.5]octan-4-yl}pyridin-2-yl)oxy]cyclobutoxy]piperidin-1-yl}methyl)piperidin-1-yl]-1,2-oxazol-5-yl}butanoyl]pyrrolidine-2-carboxamide] | < 2.5 | > 75
8 | Cc1ncsc1-c1ccc([C@H](C)NC(=O)[C@@H]2C[C@@H](O)CN2C(=O)[C@@H](c2cc(N3CCC(CN4CCC(O[C@H]5C[C@H](Oc6cc(N7C[C@@H]8CN(c9cc(-c%10ccccc%10O)nnc9N)C[C@@H]8C7)ccn6)C5)CC4)CC3)no2)C(C)C)cc1 [Compound 7, (2S,4R)-4-hydroxy-N-[(1S)-1-[4-(4-methyl-1,3-thiazol-5-yl)phenyl]ethyl]-1-[(2R)-3-methyl-2-{3-[4-({4-[(1r,3r)-3-({4-[(3aR,6aS)-5-[3-amino-6-(2-hydroxyphenyl)pyridazin-4-yl]-octahydropyrrolo[3,4-c]pyrrol-2-yl]pyridin-2-yl}oxy)cyclobutoxy]piperidin-1-yl}methyl)piperidin-1-yl]-1,2-oxazol-5-yl}butanoyl]pyrrolidine-2-carboxamide] | < 2.5 | > 75
9 | Cc1ncsc1-c1ccc([C@H](C)NC(=O)[C@@H]2C[C@@H](O)CN2C(=O)[C@@H](c2cc(N3CCC(CN4CCC(O[C@H]5C[C@H](n6ccnc6CN6C7CCC6CN(c6cc(-c8ccccc8O)nnc6N)C7)C5)CC4)CC3)no2)C(C)C)cc1 [Compound 8, (2S,4R)-4-hydroxy-N-[(1S)-1-[4-(4-methyl-1,3-thiazol-5-yl)phenyl]ethyl]-1-[(2R)-3-methyl-2-{3-[4-({4-[(1r,3r)-3-[2-({3-[3-amino-6-(2-hydroxyphenyl)pyridazin-4-yl]-3,8-diazabicyclo[3.2.1]octan-8-yl}methyl)-1H-imidazol-1-yl]cyclobutoxy]piperidin-1-yl}methyl)piperidin-1-yl]-1,2-oxazol-5-yl}butanoyl]pyrrolidine-2-carboxamide] | < 2.5 | > 75
